Assay results published in patent US12697322B2, “Methods of treating cancer using androgen receptor antagonists” (Garvan Institute of Medical Research, priority 2019, dated 2026).
“Also recorded” adds a separate entry of the source.

Key:
[1] = system: HMLER and HCC38 CD44^Lo cells; experiment: Flow cytometry of chemotherapy-induced CD44^Lo to CD44^Hi plasticity; type: cell-based, human; conditions: for induction of CD44^Lo-to-CD44^Hi transition by chemotherapy: one dose of chemotherapy for 72 hours
Description: Cells were stained and fixed as with DHT treatment.
Using purified populations of CD44^Lo cells (with no CD44^Hi fraction) the effects of chemotherapy on cellular plasticity was investigated using flow cytometry.

[2] = system: ELX12-58 PDX model; experiment: ELX12-58 PDX model with PEG-Doxorubicin or Cisplatin and Seviteronel (FIG. 15); type: in vivo, NSG female mice; conditions: ELX-12-58 PDX
Description: Freshly cut tumour chunks derived from a previously expanded tumour (ELX12-58 PDX model) were transferred into the mammary fat pad of NSG female mice. 15 animals were enrolled per treatment arm. Tumour size was monitored by caliper measurement as previously described. At the time tumour size reached 50-150 mm^3 animals were randomized into treatment arms: Vehicle (Veh), PEG-Doxorubicin (PEG-Dox) and PEG-Dox+Sev. Drug preparation and treatment administration was followed as previously described for the first round of treatment. PEG-Dox (Liposomal Doxorubicin Sun. R:202827) was administrated by weekly injections to a final concentration of 4 mg/kg. At treatment end-point animals were harvested and primary tumour, lymph node metastasis (if present), lung and liver were collected to generate FFPEs for histopathology analysis. […] Treatment was extended for 2 additional weeks, following the 3rd dose of chemotherapy, administrating a total of 5 EPG-Dox injections for these animals. Animals were followed up for 2.5 months, culling mice before if reached ethical end-point. Primary tumour and organs to determine metastatic burden were collected.

[3] = system: MDA-MB-231 EGFP-Luciferase cells; experiment: MDA-MB-231 xenograft, Seviteronel and Docetaxel (Example 5, FIG. 11); type: in vivo, mice; conditions: Seviteronel 100 mg/kg daily oral gavage, DTX 40 mg/kg i.p., 3 doses
Protocol: Forty-eight mice were enrolled in the experiment and randomized into 4 treatment arms: Vehicle (Veh), Seviteronel (Sev), Docetaxel (DTX) or combination therapy (Sev+Dtx). Animals were 6-8 weeks of age at the time of injection. MDA-MB-231 EGFP-Luciferase cells were cultured in DMEM 10% FBS 1% P/S. On the surgery date, 1×10^6 cells resuspended in 20% Matrigel/DMEM were injected unilaterally into the mammary fat pad. Tumour growth was monitored twice per week to establish growth kinetics. Five weeks post-injection, when tumour size ranged between 50-100 mm^3, animals were randomized to receive daily oral gavage with either vehicle (1% Carboxymethylcellulose, 0.1% Tween-80 and 5% DMSO) or Seviteronel (100 mg/kg). Animals were dosed from Monday to Saturday, leaving 1 day recovery per week. After one week, animals were again randomized within the Vehicle or Seviteronel groups to Control or Chemotherapy (DTX). […] Metastatic burden and tumour size was determined using the IVIS-spectrum imaging system. […] The presence of metastatic cells in each organ was additionally determined by FACS analysis (fluorescence activate cell sorting) using a panel of antibodies previously established in the lab (CD298-PE, CD44-PEcy7 and CD104EF660). Results were analyzed and graphed using Flowjo3 and prism 8. […] Metastatic incidence was analyzed applying two-way ANOVA uncorrected Fisher's LSD test.

[4] = system: MDA_MB-231-EGFP-Luc cells; experiment: MDA-MB-231-EGFP-Luc orthotopic xenograft, Docetaxel and Seviteronel (Example 12, FIG. 12); type: in vivo, NSG female mice
Protocol: 1×10^6 MDA_MB-231-EGFP-Luc cells were injected orthotopically into the mammary fat pad of NSG female mice. 14 animals were enrolled per treatment arm to reach 80% statistical power. Tumour size was monitored by caliper measurement twice per week. At the time tumour size reached 50-150 mm^3 animals were randomized into treatment arms: Vehicle (Veh), Seviteronel (Sev), Docetaxel, Docetaxel+Seviteronel. Seviteronel (100 mg/kg) was administrated via oral gavage daily (6 days on+1 day off) for cycles of 4. Seviteronel was resuspended into a 5% DMSO, 0.1% Tween 80, Hydro-methylcellulose solution at a 5 mg/ml concentration. […] Growth kinetics were monitored through the course of treatment and plotted using graph-pad prism (V9). […] At treatment endpoint, animals were injected with luciferin (10 μl/gr of 15 mg/ml stock) and metastatic burden analyzed using an IVIS spectrum imager 10 min post injection. […]
1×10^6 MDA_MB-231-EGFP-Luc cells were injected orthotopically into the mammary fat pad of NSG female mice. […] Tumour size was monitored by caliper measurement twice per week. […] Growth kinetics were monitored through the course of treatment by caliper measurement. […] Metastasis development was monitored until animals reached ethical end-point by weekly IVIS imaging. […]

[5] = system: CD44^Hi cells isolated from HMLER and HCC38 cell lines; experiment: Cell proliferation assay (CyQuant); type: cell-based, human; conditions: CD44^Hi cells from HMLER and HCC38
Protocol: HMLER, HCC38 and MDA-MB-231 cells were plated in triplicate in 96-well plates at the densities outlined in Table 3. After 24 hours, cells were treated with various chemotherapeutic agents at the following doses: Doxorubicin (0 nM, 25 nM, 50 nM, 75 nM, 100 nM, 200 nM), Cisplatin (0 μg/ml, 0.1 μg/ml, 0.5 μg/ml, 1 μg/ml, 2 μg/ml, 5 μg/ml) or Docetaxel (0 nM, 1 nM, 5 nM, 10 nM, 25 nM, 50 nM); Androgen receptor agonists: Enobosarm (0 nM, 25 nM, 50 nM, 100 nM, 200 nM, 400 nM) or DHT (0 nM, 1 nM, 5 nM, 10 nM, 20 nM, 40 nM); or AR antagonist: Seviteronel (0 nM, 0.5 nM, 2 nM, 10 nM, 20 nM, 50 nM). Assays were harvested daily for five days by removing culture media and storing at −80′C. Cell proliferation was determined using CyQuant Cell Proliferation assay kit according to manufacturer's protocol (ThermoFisher Scientific) and fluorescence was measured at ~480 nm excitation and ~520 nm emission using a microplate reader.

[6] = system: HMLER-CD44Hi and HCC38 CD44Hi cells; experiment: Tumoursphere formation assay; type: cell-based, human; conditions: CD44^Hi cells, counted at Day 14
Protocol: Single cell suspensions were plated in ultra-low attachment 96-well plates (Corning #CLS3474, New York, USA). HMLE-CD44^Hi cells were plated at a density of 50 cells/well in 100 μl of BPA-free MEGM media (Lonza # CC-3150, Basal, Switzerland). HCC38-CD44^Hi cells were plated at a density of 100 cells/well in serum-free RPMI with 1% penicillin/streptomycin, 20 ng/ml EGF, 20 ng/ml FGFb, 4 μg/mL heparin, 1×B27 and 1% methyl cellulose (Sigma). Media was replenished every five days by adding 50 μL of the appropriate tumoursphere media to each well. Tumourspheres were counted at Day 14. Results are presented as tumoursphere formation efficiency (number of spheres per well divided by the number of cells seeded per well). At Day 14, mammospheres were collected using a 40 μm cell strainer, washed with PBS and dissociated using trypsin-EDTA solution, and stained with anti-CD44PECy7 and anti-CD104PE as per standard FACS staining protocol.

[7] = system: HMLER-CD44Hi and HCC38 CD44Hi cells; experiment: Tumoursphere formation assay; type: cell-based, human

Structure (SMILES) | induction of CD44^Lo-to-CD44^Hi transition by chemotherapy [1] | tumour burden [2] | tumour growth [3] | animals clear of metastasis (metastasis free survival) ([4]; 10 weeks following commencement of second round of treatment (Day 77), IVIS) | CD44^Hi proliferation [5] | tumoursphere formation (tumoursphere-forming efficiency) [6] | blocking of chemotherapy-induced CD44^Lo-to-CD44^Hi transitions ([1]; with chemotherapy simultaneously for 72 hours, Seviteronel 10 μM) | tumour growth compared with Veh (FIG. 12B) ([4]; Seviteronel 150 mg/kg/day 1st week then 100 mg/kg/day for 3 weeks, Dtx 20 mg/kg i.p. x3) | size of tumorspheres [7]
N.N.[Cl][Pt][Cl] [Cisplatin] | induce CD44^Lo cells to transition to the CD44^Hi state | did not reduce ELX-12-58 tumour burden |  |  |  |  |  |  | 
CC(=O)O[C@@]12CO[C@@H]1C[C@H](O)[C@@]1(C)C(=O)[C@H](O)C3=C(C)[C@@H](OC(=O)[C@H](O)[C@@H](NC(=O)OC(C)(C)C)c4ccccc4)C[C@@](O)([C@@H](OC(=O)c4ccccc4)[C@H]21)C3(C)C [Docetaxel] | induce CD44^Lo cells to transition to the CD44^Hi state |  | significantly reduces tumour growth compared to Seviteronel alone | 0% |  |  |  |  | 
CC(C)[C@](O)(c1ccc2cc(OC(F)F)c(OC(F)F)cc2c1)c1c[nH]nn1 [Seviteronel, (1S)-1-[6,7-bis(difluoromethoxy)naphthalen-2-yl]-2-methyl-1-(2H-triazol-4-yl)propan-1-ol] |  |  | significantly reduces tumour growth kinetics compared to control |  | decreased CD44Hi proliferation; also recorded: decrease CD44^Hi proliferation; also recorded: inhibits the growth of CD44^Hi cells | decrease; also recorded: dose-dependently inhibits tumoursphere-forming ability | blocks chemotherapy-induced CD44^Lo-to-CD44^Hi transitions; also recorded: inhibits chemotherapy-induced CD44Lo-to-CD44-Hi plasticity; also recorded: can be blocked | significantly reduces tumour growth compared with Veh treatmet arm | reduces the size of tumorspheres
